# Assays:
# [1] = system: mast cells; assay: Degranulation of microvascular mast cells after ischemia reperfusion; format: in vivo, rat; settings: 20 min ischemia, 30 min reperfusion; 100 μM; FIG. 7
# Experimental: (§1) Male Sprague-Dawley rats weighing 200-250 g apiece were maintained on a purified laboratory diet and fasted for 24 hours prior to each experiment. The animals were initially anesthetized with pentobarbital (65 mg/kg body weight) and then a tracheotomy was performed to facilitate breathing during subsequent experimentation. The right carotid artery was cannulated and system arterial pressure was measured with a Statham P23A pressure transducer (Oxnard, Calif.) connected to the carotid artery cannula. Systemic blood pressure and heart rate were continuously recorder with a Grass physiologic recorded (Grass Instruments).
# (§2) Rats were placed in a supine position on an adjustable plexiglass microscope stage and the mesentery was prepared for microscopic observation as described previously (Asako et al., Gastroenterology, 103, 146-152 (1992); Kurose et al., Circ. Res., in press (1993)). Briefly, the mesentery was draped over a non-fluorescent coverslip that allowed for observation of a 2 cm^2 segment of tissue. The exposed bowel wall was covered with Saran Wrap (Dow Chemical Co.) and the mesentery was superfused with bicarbonate-buffered saline (pH 7.4, 37° C.) that was bubbled with a mixture of 5% CO2 and […].
# (§3) An inverted microscope (TMD-25, Diaphoto, Nikon, Tokyo, Japan) with a 40x objective lens (Fluor, Nikon) was used to observe the mesenteric microcirculation. […] A video camera (VK-C150, Hitachi, Ibaragi, Japan) mounted on the microscope projected the image onto a color monitor (PVM-2030, Sony, Tokyo, Japan) and the images were recorded using a videocassette record (NV8950, Panasonic, Tokyo, Japan). […]
# (§4) Single unbranched venules with diameters ranging between 25 and 35 μm and length greater than 150 μm were selected for study. Venular diameter (DV) was measured either on- or off-line using a video caliper (Microcirculation Research Institute, Texas A&M University, College Station, Tex.). Red blood cell centerline velocity (VRBC) was measured in venules using an optical Dopper velocimeter (Microcirculation Research Institute, Texas A&M University, College Station, Tex.). […] Venular blood flow was calculated from the product of mean red blood cell velocity (Vmean =centerline velocity/1.6; Davis, Microvasc. Res., 34, 223-230 (1987)) and microvascular cross-sectional area, assuming cylindrical geometry. Wall shear rate (γ) was calculated based on the Newtonian definition γ=8(Vmean /D).
# The number of adherent leukocytes was determined off-line during playback of videotape images. […] Adherent cells were expressed as the number per 100 μm length of venule. The number of emigrated leukocytes was also determined off-line during playback of videotape images. […] Leukocyte emigration was expressed as the number per field of view surrounding the venule. […]
# [2] = system: mesenteric venules; assay: Albumin leakage across mesenteric venules after ischemia reperfusion; format: in vivo, rat; settings: 100 μM, FIG. 4C; for effect on ischemia reperfusion induced albumin leakage: in words
# Experimental: as §1, §2
# (§5) An inverted microscope (TMD-25, Diaphoto, Nikon, Tokyo, Japan) with a 40x objective lens (Fluor, Nikon) was used to observe the mesenteric microcirculation. The mesentery was transilluminated with a 12 V-100 W direct current-stabilized light source. A video camera (VK-C150, Hitachi, Ibaragi, Japan) mounted on the microscope projected the image onto a color monitor (PVM-2030, Sony, Tokyo, Japan) and the images were recorded using a videocassette record (NV8950, Panasonic, Tokyo, Japan). A video time-date generator (WJ810, Panasonic) projected the time, date and stopwatch function onto the monitor.
# as §4
# After all parameters measured on-line were in a steady state, images from the mesenteric preparation were recorded on videotape for 10 min. […]
# [3] = system: leukocytes; assay: Leukocyte adherence and emigration after ischemia reperfusion (mesenteric venules); format: in vivo, rat; settings: 20 min ischemia, 100 μM; for change in leukocyte adherence: FIG. 4A; for effect on emigrated leukocytes: 30 min reperfusion, in words
# Experimental: as §1, §2, §5
# (§6) Single unbranched venules with diameters ranging between 25 and 35 μm and length greater than 150 μm were selected for study. Venular diameter (DV) was measured either on- or off-line using a video caliper (Microcirculation Research Institute, Texas A&M University, College Station, Tex.). Red blood cell centerline velocity (VRBC) was measured in venules using an optical Dopper velocimeter (Microcirculation Research Institute, Texas A&M University, College Station, Tex.). The velocimeter was calibrated against a rotating glass disk coated with red blood cells. Venular blood flow was calculated from the product of mean red blood cell velocity (Vmean =centerline velocity/1.6; Davis, Microvasc. Res., 34, 223-230 (1987)) and microvascular cross-sectional area, assuming cylindrical geometry. Wall shear rate (γ) was calculated based on the Newtonian definition γ=8(Vmean /D).
# The number of adherent leukocytes was determined off-line during playback of videotape images. A leukocyte was considered to be adherent to venular endothelium if it remained stationary for a period equal to or greater than 30 seconds (Granger et al., Am. J. Physiol., 257, G683-G688 (1989)). Adherent cells were expressed as the number per 100 μm length of venule. The number of emigrated leukocytes was also determined off-line during playback of videotape images. Any interstitial leukocytes present in the mesentery at the onset of the experiment were subtracted from the total number of leukocytes that accumulated during the course of the experiment. Leukocyte emigration was expressed as the number per field of view surrounding the venule. Platelet-leukocyte aggregates, which were visible within postcapillary venules, were quantitated and expressed as the number of aggregates crossing a fixed point within the venule over a 5 min period. Mast cells in the microvascular beds of the rat mesenteries were visualized by using 0.1% toluidine blue. The number of normal and degranulated mast cells was determined and the percentage of degranulated mast cells was calculated.
# [4] = system: rat mesenteric venules; assay: Venular diameter, RBC velocity and wall shear rate after ischemia reperfusion; format: in vivo; settings: 100 μM in superfusate; for RBC velocity / Venular diameter / Wall Shear Rate: 30 min after reperfusion
# Experimental: as §1, §2, §5, §6
# After all parameters measured on-line were in a steady state, images from the mesenteric preparation were recorded on videotape for 10 min. […] The mesentery was made ischemic for zero (sham ischemia) or 20 min. After the ischemic period, the ligation was gently removed. In some experiments, either sodium nitroprusside (SNP, 100 μM, Sigma Chemical), spermine-NO (SpNO, 100 μM), SIN-1 (100 μM), spermine (SP, 100 μM, Sigma Chemical), or NG-nitro-L-arginine methyl ester (L-NAME, 100 μM, Sigma Chemical) was added to the superfusate and the same protocol was employed. Spermine-NO and SIN-1, which are NO donors, were obtained from the National Institutes of Health, Bethesda, Md. […]
# [5] = system: platelet-leukocyte aggregates; assay: Platelet-leukocyte aggregates after ischemia reperfusion; format: in vivo, rat; settings: 20 min ischemia, 30 min reperfusion; 100 μM; FIG. 6
# Experimental: as §1, with “Instruments). […]” for “Instruments).”
# as §3
# Single unbranched venules with diameters ranging between 25 and 35 μm and length greater than 150 μm were selected for study. Venular diameter (DV) was measured either on- or off-line using a video caliper (Microcirculation Research Institute, Texas A&M University, College Station, Tex.). […] Wall shear rate (γ) was calculated based on the Newtonian definition γ=8(Vmean /D). […]
# [6] = system: microvasculature; assay: Capillary pressure and vascular resistance in cat small intestine transplant; format: in vivo, cats; settings: FIG. 13
# [7] = system: intestinal mucosa; assay: Intestinal blood to lumen 51Cr-EDTA clearance (mucosal permeability) in cat small intestine transplant; format: in vivo, cats
# [8] = system: small intestine; assay: Water absorption in cat small intestine transplant; format: in vivo, cats; settings: at 90 and 120 min; 0.5 mmol; FIG. 10
# [9] = biological target: T1, XO (Bos taurus, UniProt P80457); assay: XO activity by superoxide-induced reduction of ferricytochrome c; format: biochemical; settings: 1 mM, preincubated with HX/XO
# T1 sequence (P80457 whole entry): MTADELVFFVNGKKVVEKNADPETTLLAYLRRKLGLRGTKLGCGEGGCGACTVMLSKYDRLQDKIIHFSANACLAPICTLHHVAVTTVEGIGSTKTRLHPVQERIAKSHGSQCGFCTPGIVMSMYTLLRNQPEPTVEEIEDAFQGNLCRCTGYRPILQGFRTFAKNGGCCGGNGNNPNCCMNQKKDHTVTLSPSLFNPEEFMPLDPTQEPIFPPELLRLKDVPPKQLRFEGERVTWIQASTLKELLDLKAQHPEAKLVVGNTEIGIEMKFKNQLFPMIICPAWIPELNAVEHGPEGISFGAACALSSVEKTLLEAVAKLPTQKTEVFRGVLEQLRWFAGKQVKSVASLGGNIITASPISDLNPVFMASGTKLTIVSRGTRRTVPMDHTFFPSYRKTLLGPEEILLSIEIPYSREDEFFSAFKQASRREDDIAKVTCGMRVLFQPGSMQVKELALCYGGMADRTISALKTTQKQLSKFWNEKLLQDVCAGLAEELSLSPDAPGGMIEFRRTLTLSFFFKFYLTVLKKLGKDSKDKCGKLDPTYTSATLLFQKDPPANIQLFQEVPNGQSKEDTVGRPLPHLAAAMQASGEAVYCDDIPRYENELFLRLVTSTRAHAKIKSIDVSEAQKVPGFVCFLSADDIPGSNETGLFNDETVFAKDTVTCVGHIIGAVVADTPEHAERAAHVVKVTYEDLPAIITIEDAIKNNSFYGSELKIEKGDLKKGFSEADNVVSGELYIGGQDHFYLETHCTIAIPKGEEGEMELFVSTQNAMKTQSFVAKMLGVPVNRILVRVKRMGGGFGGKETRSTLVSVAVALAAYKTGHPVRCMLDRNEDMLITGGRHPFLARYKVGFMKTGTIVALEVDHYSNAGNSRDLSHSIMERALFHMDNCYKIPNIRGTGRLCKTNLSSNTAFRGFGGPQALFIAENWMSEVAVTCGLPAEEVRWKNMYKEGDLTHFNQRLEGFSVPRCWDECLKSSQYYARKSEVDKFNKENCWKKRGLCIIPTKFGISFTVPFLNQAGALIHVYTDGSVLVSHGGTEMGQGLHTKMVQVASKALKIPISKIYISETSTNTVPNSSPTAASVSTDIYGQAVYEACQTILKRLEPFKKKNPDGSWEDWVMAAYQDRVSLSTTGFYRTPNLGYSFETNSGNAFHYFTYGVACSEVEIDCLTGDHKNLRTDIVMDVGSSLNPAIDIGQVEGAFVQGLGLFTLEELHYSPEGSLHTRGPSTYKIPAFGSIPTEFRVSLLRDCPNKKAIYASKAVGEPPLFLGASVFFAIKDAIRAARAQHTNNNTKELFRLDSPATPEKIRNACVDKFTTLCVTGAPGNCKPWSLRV
# Experimental: (§7) The activity of XO was monitored in the absence and presence of 1 mM DEA/NO by two different assays. Superoxide-induced reduction of ferricytochrome c to ferrocytochrome c was monitored spectrophotometrically at 550 nm (Fridovich, Handbook of Method for Oxygen Radical Research, pages 213-215 (1985)). The reaction was carried out in a 1 ml volume in aerated phosphate buffer (pH 7.8, 50 mM) containing 50 μM DETAPAC. HX was maintained at 2.5 mM and ferricytochrome c at 20 μM. The reactions were initiated with the addition of XO (final concentration of 0.2 units/ml). The activity of XO in the absence and presence of 1 mM DEA/NO was directly monitored by measuring the production of uric acid spectrophotometrically at 305 nm for 10 min under the same conditions but in the absence of ferricytochrome c. All enzymatic assays and chemical reactions were done at 37° C.
# [10] = system: Chinese hamster V79 lung fibroblasts; assay: V79 clonogenic survival, hydrogen peroxide cytotoxicity; format: cell-based; settings: 1 mM; for effect on hydrogen peroxide cytotoxicity: FIG. 2B; for protection from hydrogen peroxide cytotoxicity: decomposition products of DEA/NO, FIG. 1B
# From the text: Colonies containing more than 50 cells were scored.
# [11] = system: Chinese hamster V79 lung fibroblasts; assay: V79 clonogenic survival, hypoxanthine/xanthine oxidase (HX/XO) cytotoxicity; settings: decomposition products of DEA/NO, 1 mM
# Experimental: Chinese hamster V79 lung fibroblasts were cultured in F12 medium supplemented with 10% fetal calf serum and antibiotics. Cell survival was assessed by clonogenic assay with 85-95% plating efficiency. Stock cultures of exponentially growing cells were trypsinized, rinsed, and plated (7×10^5 cells/dish) into a number of 100 cm^2 petri dishes and incubated 16 hr at 37° C. prior to experimental protocols.
# It has been shown that exposure of V79 cells to hydrogen peroxide results in dose-dependent cytotoxicity (Mitchell et al., supra).
# HX and XO were purchased from Boehringer Co. (Indianapolis, Ind.). Nitrite, diethylamine, sulfinamide, diethylenetriaminepentaacetic acid (DETAPAC) and N-(1-naphthyl)ethylenediaminedihydrogenchloride (NEDD) were purchased from Aldrich (Milwaukee, Wis.). Cytosine-β-D-arabinofuranoside and ferricytochrome c were purchased from Sigma (St. Louis, Mo.). DEA/NO and SPER/NO were synthesized as previously described (Maragos et al., (1991), supra).
# Exponentially growing cultures of Chinese hamster V79 fibroblasts were exposed to either HX/XO (final concentration of HX was 0.5 mM; 0.08 units/ml XO were used) for various amounts of time (FIG. 1A) or to various concentrations of hydrogen peroxide for one hour (FIG. 1B). […] Additionally, 1 mM DEA/NO was added to medium in the absence of cells, incubated at 37° C. for 1 hr or 16 hrs, and then added just prior to the addition of hydrogen peroxide to evaluate the effects of DEA/NO which had released NO. After treatment, cell monolayers were rinsed twice with phosphate-buffered saline (PBS), trypsinized, counted and plated in triplicate for macroscopic colony formation. Each dose determination was plated in triplicate and experiments were repeated a minimum of two times. Plates were incubated for 7 days, after which colonies were fixed with methanol/acetic acid (3:1), stained with crystal violet, and counted. Colonies containing more than 50 cells were scored.
# [12] = biological target: T1, XO; assay: XO activity by uric acid production at 305 nm; format: biochemical; settings: 1 mM, preincubated with HX/XO
# Experimental: as §7
# [13] = system: Chinese hamster V79 lung fibroblasts; settings: Mitchell et al.; cited from earlier work
molecule,measurement,setting,value
"COC(=O)[C@@H](N)CCCNC(=N)N[N+](=O)[O-] [L-NAME, NG-nitro-L-arginine methyl ester]",degranulation of microvascular mast cells,[1],had no effect
same,effect on ischemia reperfusion induced albumin leakage,[2],no effect
same,change in leukocyte adherence,[3]; 10 and 30 min reperfusion,no significant changes
same,effect on emigrated leukocytes,[3]; FIG. 4B,no effect
same,RBC velocity,[4],1.84 ± 0.09 mm/sec
same,Venular diameter,[4],29.2 ± 1.5 μm
same,Wall Shear Rate,[4],316 ± 10 L/s
[NH-]c1c[n+](N2CCOCC2)no1 [SIN-1],platelet-leukocyte aggregate formation,[5],reduced
same,degranulation of microvascular mast cells,[1],significantly inhibited
same,capillary pressure,[6],No significant changes
same,mucosal permeability (51Cr-EDTA clearance),"[7]; 6-hr hypothermic ischemia, 120 min reperfusion, FIG. 9",decreased
same,51Cr-EDTA clearance,"[7]; at 60 and 90 min, 0.5 mmol luminal perfusate",statistically significant decrease
same,water absorption,[8],significantly increased
same,attenuation of albumin leakage,[2]; 10 min and 30 min after reperfusion,60-71%
same,reduction of number of emigrated leukocytes,"[3]; 10 and 30 min reperfusion, FIG. 4B",68-75%
same,reversal of decrease in RBC velocity after reperfusion,[4]; in words,reversed the decreases
same,reversal of decrease in wall shear rate after reperfusion,[4]; in words,reversed the decreases
same,RBC velocity,[4],2.64 ± 0.23 mm/sec
same,Venular diameter,[4],29.0 ± 1.1 μm
same,Wall Shear Rate,[4],457 ± 38 L/s
"NCCCNCCCCNCCCN [SP, spermine]",degranulation of microvascular mast cells,[1],had no effect
same,effect on ischemia reperfusion induced albumin leakage,[2],no effect
same,change in leukocyte adherence,[3]; 10 and 30 min reperfusion,no significant changes
same,effect on emigrated leukocytes,[3]; FIG. 4B,no effect
same,RBC velocity,[4],2.32 ± 0.19 mm/sec
same,Venular diameter,[4],29.8 ± 1.4 μm
same,Wall Shear Rate,[4],391 ± 28 L/s
CCNCC [diethylamine],"inhibition of XO activity, production of superoxide (cytochrome c reduction)",[9],did not inhibit the activity of XO
same,effect on hydrogen peroxide cytotoxicity,[10],had no effect on hydrogen peroxide cytotoxicity
same,protection from hydrogen peroxide cytotoxicity,[10],did not protect
same,protection from HX/XO-induced cytotoxicity,[11],did not protect
same,"inhibition of XO activity, uric acid production",[12],did not inhibit the activity of XO
O=NO [nitrite],"inhibition of XO activity, production of superoxide (cytochrome c reduction)",[9],did not inhibit the activity of XO
same,effect on hydrogen peroxide cytotoxicity,[10],potentiated hydrogen peroxide cytotoxicity
same,protection from hydrogen peroxide cytotoxicity,[10],did not protect
same,protection from HX/XO-induced cytotoxicity,[11],did not protect
same,"inhibition of XO activity, uric acid production",[12],did not inhibit the activity of XO
superoxide dismutase,HX/XO induced cytotoxicity with added enzyme,[13],not treated
"catalase: catalase (protein, UniProt P04040 2-527, looked up) Catalase: ADSRDPASDQMQHWKEQRAAQKADVLTTGAGNPVGDKLNVITVGPRGPLLVQDVVFTDEMAHFDRERIPERVVHAKGAGAFGYFEVTHDITKYSKAKVFEHIGKKTPIAVRFSTVAGESGSADTVRDPRGFAVKFYTEDGNWDLVGNNTPIFFIRDPILFPSFIHSQKRNPQTHLKDPDMVWDFWSLRPESLHQVSFLFSDRGIPDGHRHMNGYGSHTFKLVNANGEAVYCKFHYKTDQGIKNLSVEDAARLSQEDPDYGIRDLFNAIATGKYPSWTFYIQVMTFNQAETFPFNPFDLTKVWPHKDYPLIPVGKLVLNRNPVNYFAEVEQIAFDPSNMPPGIEASPDKMLQGRLFAYPDTHRHRLGPNYLHIPVNCPYRARVANYQRDGPMCMQDNQGGAPNYYPNSFGAPEQQPSALEHSIQYSGEVRRFNTANDDNVTQVRAFYVNVLNEEQRKRLCENIAGHLKDAQIFIQKKAVKNFTEVHPDYGSHIQALLDKYNAEKPKNAIHTFVQSGSHLAAREKANL",HX/XO induced cytotoxicity with added enzyme,[13],treated the cytotoxicity

# Reference: US5789447A, “Nitric oxide releasing compounds as protective agents in ischemia reperfusion injury” (priority 1995, dated 1998)
